Results from publication PMC6958387, “Biological Evaluation of Arylsemicarbazone Derivatives as Potential Anticancer Agents” (Pharmaceuticals, 2019).

How the values were obtained:
[1] = system: K562, HL-60, MOLT-4, HEp-2, NCI-H292, HT-29 and MCF-7 tumor cell lines; assay: Cytotoxic screening against the panel of tumor cell lines (MTT); type: cell-based, human; settings: Homo sapiens; range over the seven tumor cell lines, 72 h; read-out: IC50 values across all tested cell lines
Procedure: The cytotoxicity assessment was performed against three human cancer cell lines in suspension (K562, HL-60 and MOLT-4) and four adhered (HEp-2, NCI-H292, HT-29 and MCF-7).
The cells were obtained from the Cell Bank of Rio de Janeiro and maintained in the Laboratory of Cell Culture of the Department of Antibiotics of the Federal University of Pernambuco. The lines K562 (myeloblastic leukaemia), HL-60 (promyelocytic leukemia) and MOLT-4 (lymphoblastic leukemia) were cultured in RPMI 1640 medium and the lines HEp-2 (larynx carcinoma), NCI-H292 (lung carcinoma), HT-29 (colon adenocarcinoma) and MCF-7 (breast adenocarcinoma) were cultured in DMEM medium, supplemented with 10% fetal bovine serum, 2 mM glutamine, 100 U/mL penicillin and 100 μg/mL streptomycin (Gibco™ Life Technologies), at 37 °C and 5% CO2.
The evaluation of the cytotoxicity of the compounds was performed by the method of 3-(4,5-dimethyl-2-thiazolyl)-2,5-diphenyl-2H-tetrazolium bromide (MTT) (Sigma Aldrich Co., St. Louis, MO, USA). To perform the assay the cells were seeded in 96-well plates at the following concentrations: HL-60 and K562 (0.3 × 10^6 cells/mL); MOLT-4 and PBMC (10^6 cells/mL); NCI-H292, HT-29, HEp-2 e MCF-7 (10^5 cells/mL). Briefly, the compounds previously dissolved in DMSO (dimethylsulfoxide, Vetec, São Paulo, Brazil), were diluted in medium and added to each well at the desired concentrations. For the calculation of the concentration that inhibits 50% of cell growth (IC50) the compounds were serially diluted to obtain the final concentrations between 0.19–25 μg/mL. Doxorubicin was used as the standard in the concentration range between (0.078–10 μg/mL). After 72 h of contact of the cells with the compounds, it was added to each well 25 μL of MTT solution (5 mg/mL). […] To perform the reading, 100 μL of DMSO was added in each well for the dissolution of the formazan crystals. The amount of formazan was measured by reading the plate at 560 nm absorbance. The IC50 was calculated from the nonlinear regression in the Prisma 7.0 software (GraphPad, San Diego, CA, USA). […]

CDK9/CyclinT = CDK9/CyclinT (Homo sapiens, UniProt P50750); assay: Kinase inhibition assay (ADP-Glo)
PIM1 = molecular target: T1, PIM1 (Homo sapiens, UniProt P11309); assay: Kinase inhibition assay (ADP-Glo); type: biochemical; settings: 10 µM ATP
T1 construct: made in house; host or cells: bacteria
Procedure: HsPIM1 (human proto-oncogene, recombinant, expressed in bacteria) was assayed in buffer B with 0.8 µg/µL of histone H1 (Sigma #H5505) as substrate.

HL-60 cells [2] = assay: Mitochondrial transmembrane potential (rhodamine 123), flow cytometry; type: cell-based, human; settings: 72 h
Procedure: In this sense, in order to evaluate if compounds 3c and 4a induce apoptosis by alterating the mitochondria transmembrane potential, this assay was performed by flow cytometry using the fluorochrome rhodamine 123, because this is able to accumulate in cells with unchanged mitochondrial transmembrane potential.
(§1) HL-60 cells (3 × 10^5) were plated in 24-well plates and treated with the compounds 3c (13 and 26 μM) and 4a (11 and 22 μM) for 72 h at 37 °C with 5% CO2. In all trials, doxorubicin was used as a positive control. After the incubation period, an aliquot of 500 μL of treated and untreated cells suspension was transferred to an Eppendorf tube and centrifuged to remove the supernatant and continue the protocol of the test. In the cell viability and annexin V assays, kits were used, ViaCount kit and guava nexin kit (Guava Technologies), respectively. The protocols performed in these tests followed the manufacturer’s instructions. For to analyze mitochondrial depolarization, rhodamine 123 fluorescent dye was used. In the assay for cell cycle analysis and DNA fragmentation propidium iodide was used. The experiments were performed on Guava EasyCyte HT (Merck-Millipore) flow cytometer, acquiring 5000 events. The data were analyzed in Guava-Soft™ software version 2.7. Three independent experiments were performed in triplicate.

HL-60 cells [3] = assay: Cell cycle assay (propidium iodide), flow cytometry; type: cell-based, human; settings: 72 h
Procedure: In order to improve the study of the mechanism of death induction by compounds 3c and 4a in HL-60 cells, a test was performed on the flow cytometer after staining with propidium iodide to evaluate the effect of the compounds on cell cycle progression (Figure 6).
as §1

DYRK1A = molecular target: T2, DYRK1A (Rattus norvegicus, UniProt Q63470); assay: Kinase inhibition assay (ADP-Glo); type: biochemical; settings: 10 µM ATP
T2 construct: amino acids 1 to 499 including the kinase domain; made in house; host or cells: bacteria
Procedure: RnDYRK1A (Rattus norvegicus, amino acids 1 to 499 including the kinase domain, recombinant, expressed in bacteria, DNA vector kindly provided by Dr. W. Becker, Aachen, Germany) was assayed in buffer A with 0.033 μg/µL of the following peptide: KKISGRLSPIMTEQ as substrate.

[4] = system: Peripheral Blood Mononuclear Cells (PBMCs); assay: MTT cytotoxicity in normal cells, 72 h; type: cell-based, human; settings: Homo sapiens, PBMC, 72 h of incubation
Procedure: In order to evaluate the cytotoxic potential in normal cells, all the derivatives were tested against Peripheral Blood Mononuclear Cells (PBMCs) and the most promising compounds were again compounds 3c and 4a, which offered more selectivity against the cancer cells.
Mononuclear cells were obtained from the peripheral blood of healthy volunteers by heparin tube collection and isolated by Ficoll-Histopaque gradient centrifugation. After centrifugation, the cells were harvested, washed and resuspended in RPMI 1640 medium supplemented with 20% fetal bovine serum, 2 mM glutamine, 100 U/mL penicillin and 100 μg/mL streptomycin (Gibco™ Life Technologies, Waltham, MA, USA). The phytohemagglutinin mitogen 2% was also added into the culture medium. After that, using the neubauer chamber, the cells were counted and plated in a 96-well plate at a concentration of 10^6 cells/mL and then were maintained for overnight under incubation at 37 °C and 5% CO2 [65].
The evaluation of the cytotoxicity of the compounds was performed by the method of 3-(4,5-dimethyl-2-thiazolyl)-2,5-diphenyl-2H-tetrazolium bromide (MTT) (Sigma Aldrich Co., St. Louis, MO, USA). To perform the assay the cells were seeded in 96-well plates at the following concentrations: HL-60 and K562 (0.3 × 10^6 cells/mL); MOLT-4 and PBMC (10^6 cells/mL); NCI-H292, HT-29, HEp-2 e MCF-7 (10^5 cells/mL). Briefly, the compounds previously dissolved in DMSO (dimethylsulfoxide, Vetec, São Paulo, Brazil), were diluted in medium and added to each well at the desired concentrations. For the calculation of the concentration that inhibits 50% of cell growth (IC50) the compounds were serially diluted to obtain the final concentrations between 0.19–25 μg/mL. Doxorubicin was used as the standard in the concentration range between (0.078–10 μg/mL). After 72 h of contact of the cells with the compounds, it was added to each well 25 μL of MTT solution (5 mg/mL). Plates were left for another 3 h in incubator at 37 °C and at the end of that period the supernatant was aspirated. To perform the reading, 100 μL of DMSO was added in each well for the dissolution of the formazan crystals. The amount of formazan was measured by reading the plate at 560 nm absorbance. The IC50 was calculated from the nonlinear regression in the Prisma 7.0 software (GraphPad, San Diego, CA, USA). Each sample was tested in triplicate in three independent experiments.

Sequence of CDK9/CyclinT (P50750 whole entry): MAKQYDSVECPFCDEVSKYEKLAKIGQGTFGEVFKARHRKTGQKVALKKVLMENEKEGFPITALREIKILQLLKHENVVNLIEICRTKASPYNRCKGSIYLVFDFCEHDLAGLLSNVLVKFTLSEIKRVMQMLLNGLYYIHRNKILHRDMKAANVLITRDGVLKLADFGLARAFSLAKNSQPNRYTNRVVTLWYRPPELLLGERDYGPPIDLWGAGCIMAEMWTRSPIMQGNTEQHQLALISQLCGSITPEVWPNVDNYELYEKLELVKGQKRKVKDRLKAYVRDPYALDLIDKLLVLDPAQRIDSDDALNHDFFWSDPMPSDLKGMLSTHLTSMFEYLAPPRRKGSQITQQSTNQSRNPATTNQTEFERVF
Sequence of CDK9/CyclinT (O60563 whole entry partner): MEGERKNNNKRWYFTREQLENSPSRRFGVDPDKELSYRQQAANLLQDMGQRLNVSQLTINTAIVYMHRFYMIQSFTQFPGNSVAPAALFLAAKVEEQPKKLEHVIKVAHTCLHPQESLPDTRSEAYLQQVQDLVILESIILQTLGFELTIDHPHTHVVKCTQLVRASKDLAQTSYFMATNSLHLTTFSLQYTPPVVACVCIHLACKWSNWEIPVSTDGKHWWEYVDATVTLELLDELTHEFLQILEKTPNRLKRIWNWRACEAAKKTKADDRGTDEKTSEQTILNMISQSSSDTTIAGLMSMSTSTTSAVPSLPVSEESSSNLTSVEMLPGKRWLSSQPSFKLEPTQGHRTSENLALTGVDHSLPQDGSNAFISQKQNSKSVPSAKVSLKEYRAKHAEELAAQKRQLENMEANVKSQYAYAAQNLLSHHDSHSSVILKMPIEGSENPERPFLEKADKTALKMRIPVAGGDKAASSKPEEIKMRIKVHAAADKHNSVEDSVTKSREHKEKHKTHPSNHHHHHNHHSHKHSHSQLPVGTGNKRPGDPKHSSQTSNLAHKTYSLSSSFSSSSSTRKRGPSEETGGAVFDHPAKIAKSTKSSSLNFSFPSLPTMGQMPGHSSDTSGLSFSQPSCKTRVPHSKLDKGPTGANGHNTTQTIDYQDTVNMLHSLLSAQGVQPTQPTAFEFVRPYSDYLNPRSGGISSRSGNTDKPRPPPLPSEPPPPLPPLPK
T1 sequence (P11309 whole entry): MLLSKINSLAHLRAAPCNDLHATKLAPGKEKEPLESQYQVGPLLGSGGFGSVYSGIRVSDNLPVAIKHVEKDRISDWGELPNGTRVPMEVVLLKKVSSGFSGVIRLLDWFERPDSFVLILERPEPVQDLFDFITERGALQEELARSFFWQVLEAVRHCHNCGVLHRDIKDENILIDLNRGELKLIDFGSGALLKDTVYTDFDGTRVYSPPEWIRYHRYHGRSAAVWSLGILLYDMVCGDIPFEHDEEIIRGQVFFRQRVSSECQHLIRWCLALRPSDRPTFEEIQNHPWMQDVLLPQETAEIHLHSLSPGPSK

IC50 (CDK9/CyclinT) | IC50 (PIM1) | IC50 (DYRK1A) | Structure (SMILES) | IC50 [1] | depolarized cells (HL-60 cells [2]; 13 μM) | depolarized cells (HL-60 cells [2]; 26 μM) | cells in G1 phase (HL-60 cells [3]; 13 μM) | cells in G1 phase (HL-60 cells [3]; 26 μM) | IC50 [4] | depolarized cells (HL-60 cells [2]; 22 μM) | cells in G1 phase (HL-60 cells [3]; 11 μM) | cells in G1 phase (HL-60 cells [3]; 22 μM)
0.86 µM | 0.52 µM | 0.073 µM | NC(=O)N/N=C/c1c(O)ccc2ccccc12 [Compound 3c, 2-Hydroxynaphthaldehyde Semicarbazone] | 13.1 to 56.3 µM | 30.9% | 34.2% | 63.3% | 66.2% | 82 ± 1.63 µM |  |  | 
> 10 µM | > 10 µM | > 10 µM | Cc1ccc(C=NNC(N)=O)cc1 [Compound 3g, 4-Methylbenzaldehyde Semicarbazone] |  |  |  |  |  | > 100 µM |  |  | 
> 10 µM | > 10 µM | > 10 µM | CCCCN(N=Cc1ccc([N+](=O)[O-])o1)C(N)=O [Compound 4a, 5-Nitro-2-(N^2-n-butyl)furfuraldehyde Semicarbazone] | 11.4 to 37.9 µM |  |  |  |  | 51.2 ± 0.75 µM | 59.3% | 62.7% | 81.9%
